# Measured values as given in patent publication US9725416B2, “Ethynyl derivatives” (Hoffmann-La Roche Inc., priority 2014, dated 2017).
# Biological target: T1, human mGlu4 receptor (Homo sapiens, UniProt Q14833)
# T1 construct: expressed in transfected cells; host or cells: HEK-293 (monoclonal, stably transfected)
# Test: Ca2+ mobilization in vitro assay on recombinant human mGlu4 expressed in HEK293 cells (mGlu4 PAM)
# Format: cell-based
# Details: for Emax: HEK293, maximal response in % of the maximal stimulatory effect obtained with saturating concentrations of L-AP4, read-out: Eff. (%); for EC50: HEK-293 cells, Ca2+ mobilization, L-AP4 added at EC20
# Outline: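 HEK293 line stably expressing human mGlu4 (low expression, low constitutive activity), Fluo-4AM loaded; compounds (11 half-log dilutions) preincubated 10-30 min at 37 °C, then L-AP4 added at its EC20, determined daily. EC50 from peak fluorescence minus basal, normalized to saturating L-AP4 maximum, four-parameter fit.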
# T1 sequence (Q14833 33-912): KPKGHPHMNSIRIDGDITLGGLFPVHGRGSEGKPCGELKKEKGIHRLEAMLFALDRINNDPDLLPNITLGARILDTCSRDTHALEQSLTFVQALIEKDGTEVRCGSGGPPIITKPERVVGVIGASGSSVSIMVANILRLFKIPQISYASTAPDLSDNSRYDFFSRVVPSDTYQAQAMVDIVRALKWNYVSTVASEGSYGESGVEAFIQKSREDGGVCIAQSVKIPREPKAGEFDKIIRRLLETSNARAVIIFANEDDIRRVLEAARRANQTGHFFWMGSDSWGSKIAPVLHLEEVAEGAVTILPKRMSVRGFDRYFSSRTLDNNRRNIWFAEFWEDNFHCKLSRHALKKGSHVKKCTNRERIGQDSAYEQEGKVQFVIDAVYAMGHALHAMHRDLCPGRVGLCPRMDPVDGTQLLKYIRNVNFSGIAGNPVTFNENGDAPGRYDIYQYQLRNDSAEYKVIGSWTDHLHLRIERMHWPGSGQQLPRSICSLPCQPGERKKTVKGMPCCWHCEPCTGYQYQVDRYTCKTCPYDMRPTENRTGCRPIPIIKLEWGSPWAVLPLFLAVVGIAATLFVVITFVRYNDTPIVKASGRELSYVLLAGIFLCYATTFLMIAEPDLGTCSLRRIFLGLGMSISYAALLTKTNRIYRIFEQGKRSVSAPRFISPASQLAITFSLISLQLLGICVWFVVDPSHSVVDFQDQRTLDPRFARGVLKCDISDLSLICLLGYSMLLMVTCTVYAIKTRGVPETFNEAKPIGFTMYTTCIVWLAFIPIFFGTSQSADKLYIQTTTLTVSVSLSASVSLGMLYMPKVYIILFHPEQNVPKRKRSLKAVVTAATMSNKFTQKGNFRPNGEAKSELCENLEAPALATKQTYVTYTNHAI
Structure (SMILES),Emax [%],EC50 [nM]
"CC(C)n1cc([C@]2(C)CC(=O)N(c3c(F)cc(C#Cc4ccccc4)cc3F)C(=O)N2C)ccc1=O [Example 68, (6S)-3-[2,6-Difluoro-4-(2-phenylethynyl)phenyl]-6-(1-isopropyl-6-oxo-3-pyridyl)-1,6-dimethyl-hexahydropyrimidine-2,4-dione]",113,44
"O=C1CC2COCCN2C(=O)N1c1c(F)cc(C#Cc2ccccc2)cc1F (racemic) [Example 8, (9aRS)-7-[2,6-Difluoro-4-(2-phenylethynyl)phenyl]-3,4,9,9a-tetrahydro-1H-pyrimido[6,1-c][1,4]oxazine-6,8-dione]",107,144
"CN1C(=O)N(c2c(F)cc(C#Cc3ccccc3)cc2F)C(=O)CC1(C)C [Example 1, 3-[2,6-Difluoro-4-(2-phenylethynyl)phenyl]-1,6,6-trimethyl-hexahydropyrimidine-2,4-dione]",191,92
"CN1C(=O)N(c2ncc(C#Cc3ccccc3)cc2F)C(=O)C[C@@]1(C)c1cccnc1 [Example 50, (6S)-3-[3-Fluoro-5-(2-phenylethynyl)-2-pyridyl]-1,6-dimethyl-6-(3-pyridyl)hexahydropyrimidine-2,4-dione]",164,104
"CN1C(=O)N(c2ccc(C#Cc3ccccc3)cc2Cl)C(=O)CC12CCCCC2 [Example 3, 3-[2-Chloro-4-(2-phenylethynyl)phenyl]-1-methyl-1,3-diazaspiro[5.5]undecane-2,4-dione]",105,245
"CC(C)N1CCN2C(=O)N(c3c(F)cc(C#Cc4ccccc4)cc3F)C(=O)CC2(C)C1=O (racemic) [Example 36, (9aRS)-7-[2,6-Difluoro-4-(2-phenylethynyl)phenyl]-2-isopropyl-9a-methyl-4,9-dihydro-3H-pyrazino[1,2-c]pyrimidine-1,6,8-trione]",128,169
"CCC1(CC)CC(=O)N(c2c(F)cc(C#Cc3ccccc3)cc2F)C(=O)N1 [Example 21, 3-[2,6-Difluoro-4-(2-phenylethynyl)phenyl]-6,6-diethyl-hexahydropyrimidine-2,4-dione]",106,145
"CN1C(=O)N(c2c(F)cc(C#Cc3ccccc3)cc2F)C(=O)C[C@@]1(C)c1cnccn1 [Example 57, (6S)-3-[2,6-Difluoro-4-(2-phenylethynyl)phenyl]-1,6-dimethyl-6-pyrazin-2-yl-hexahydropyrimidine-2,4-dione]",102,117
"CN1C(=O)N(c2c(F)cc(C#Cc3cccnc3)cc2F)C(=O)CC1(C)c1ccc(Cl)cc1 (racemic) [Example 41, (6RS)-6-(4-Chlorophenyl)-3-[2,6-difluoro-4-[2-(3-pyridyl)ethynyl]phenyl]-1,6-dimethyl-hexahydropyrimidine-2,4-dione]",115,229
"CN1C(=O)N(c2c(F)cc(C#Cc3cccnc3)cc2F)C(=O)CC1(c1ccccc1)C(F)(F)F (racemic) [Example 72, (6RS)-3-[2,6-Difluoro-4-[2-(3-pyridyl)ethynyl]phenyl]-1-methyl-6-phenyl-6-(trifluoromethyl)hexahydropyrimidine-2,4-dione]",91,82
"CCN1C(=O)N(c2c(F)cc(C#Cc3cccnc3)cc2F)C(=O)CC1(C)c1ccccc1 (racemic) [Example 16, (6RS)-3-[2,6-Difluoro-4-[2-(3-pyridyl)ethynyl]phenyl]-1-ethyl-6-methyl-6-phenyl-hexahydropyrimidine-2,4-dione]",136,105
"COc1ccc([C@]2(C)CC(=O)N(c3c(F)cc(C#Cc4ccccc4)cc3F)C(=O)N2C)nn1 [Example 81, (6S)-3-[2,6-Difluoro-4-(2-phenylethynyl)phenyl]-6-(6-methoxypyridazin-3-yl)-1,6-dimethyl-hexahydropyrimidine-2,4-dione]",100,28
"CN1CCN2C(=O)N(c3c(F)cc(C#Cc4ccccc4)cc3F)C(=O)CC2(C)C1=O (racemic) [Example 35, (9aRS)-7-[2,6-Difluoro-4-(2-phenylethynyl)phenyl]-2,9a-dimethyl-4,9-dihydro-3H-pyrazino[1,2-c]pyrimidine-1,6,8-trione]",131,158

# Now from value to compound:
Emax [%],EC50 [nM],Structure (SMILES)
98,70,"Cc1ccc([C@]2(C)CC(=O)N(c3c(F)cc(C#Cc4ccccc4)cc3F)C(=O)N2C)cn1 [Example 54, (6S)-3-[2,6-Difluoro-4-(2-phenylethynyl)phenyl]-1,6-dimethyl-6-(6-methyl-3-pyridyl)hexahydropyrimidine-2,4-dione]"
136,84,"CN1C(=O)N(c2c(F)cc(C#Cc3ccccc3)cc2F)C(=O)C[C@@]1(C)c1ccnnc1 [Example 61, (6S)-3-[2,6-Difluoro-4-(2-phenylethynyl)phenyl]-1,6-dimethyl-6-pyridazin-4-yl-hexahydropyrimidine-2,4-dione]"
106,44,"CN1C(=O)N(c2c(F)cc(C#Cc3ccccc3)cc2F)C(=O)C[C@@]1(C)c1ccncn1 [Example 55, (6S)-3-[2,6-Difluoro-4-(2-phenylethynyl)phenyl]-1,6-dimethyl-6-pyrimidin-4-yl-hexahydropyrimidine-2,4-dione]"
112,224,"CN1C(=O)N(c2c(F)cc(C#Cc3cccnc3)cc2F)C(=O)CC1(C)c1cccc(Cl)c1 (racemic) [Example 39, (6RS)-6-(3-Chlorophenyl)-3-[2,6-difluoro-4-[2-(3-pyridyl)ethynyl]phenyl]-1,6-dimethyl-hexahydropyrimidine-2,4-dione]"
119,28,"CN1C(=O)N(c2c(F)cc(C#Cc3ccccc3)cc2F)C(=O)CC1(C)c1ccccc1 (racemic) [Example 13, (6RS)-3-[2,6-Difluoro-4-(2-phenylethynyl)phenyl]-1,6-dimethyl-6-phenyl-hexahydropyrimidine-2,4-dione]"
113,38,"CN1C(=O)N(c2c(F)cc(C#Cc3ccccc3)cc2F)C(=O)C[C@@]1(C)c1ccnc(Cl)c1 [Example 60, (6S)-6-(2-Chloro-4-pyridyl)-3-[2,6-difluoro-4-(2-phenylethynyl)phenyl]-1,6-dimethyl-hexahydropyrimidine-2,4-dione]"
105,112,"CN1C(=O)N(c2c(F)cc(C#Cc3ccccc3)cc2F)C(=O)CC1(C)c1ccncc1 (racemic) [Example 28, (6RS)-3-[2,6-Difluoro-4-(2-phenylethynyl)phenyl]-1,6-dimethyl-6-(4-pyridyl)hexahydropyrimidine-2,4-dione]"
99,79,"CN1C(=O)N(c2c(F)cc(C#Cc3ccccc3)cc2F)C(=O)C[C@@]1(C)c1cncnc1 [Example 56, (6S)-3-[2,6-Difluoro-4-(2-phenylethynyl)phenyl]-1,6-dimethyl-6-pyrimidin-5-yl-hexahydropyrimidine-2,4-dione]"
134,100,"CN1C(=O)N(c2c(F)cc(C#Cc3cccnc3)cc2F)C(=O)CC1(C)c1ccccc1 (racemic) [Example 15, (6RS)-3-[2,6-Difluoro-4-[2-(3-pyridyl)ethynyl]phenyl]-1,6-dimethyl-6-phenyl-hexahydropyrimidine-2,4-dione]"
